Test results: ChEMBL document CHEMBL5500346, “Targeting EGFR degradation by autophagosome degraders” (Eur J Med Chem, 2024)
pIC50, pKd: −log10 of the molar value. The source made the active and inactive calls. Unless noted, the calls are words filed in the database; no cut-off is given here.

Tests used:
[1] = Toxicity in C57BL/6 mouse assessed as serum DBIL level at 200 mg/kg, ip measured after 24 hrs (reference value: 7.868 umol/L); format: organism-based; conditions: in vivo
[2] = Toxicity in C57BL/6 mouse assessed as tremor upto 200 mg/kg, ip measured after 24 hrs; format: organism-based; conditions: in vivo
[3] = Toxicity in C57BL/6 mouse assessed as lethargy upto 200 mg/kg, ip measured after 24 hrs; format: organism-based; conditions: in vivo
[4] = Toxicity in C57BL/6 mouse assessed as serum ALT level at 100 mg/kg, ip measured after 24 hrs (reference value: 42.554 U/L); format: organism-based; conditions: in vivo
[5] = molecular target: T1, Microtubule-associated protein 1 light chain 3 beta/Epidermal growth factor receptor (Homo sapiens, UniProt P00533+Q9GZQ8); experiment: ATTEC activity at LC3B/EGFR in MG132-treated human HCC827 cells assessed as protein degradation at 1 uM incubated for 12 hrs by Western blot analysis; format: cell-based
HCC827 = experiment: Inhibition of colony formation in human HCC827 cells incubated for 2 weeks by crystal violet staining based analysis; format: functional, cell-based; conditions: dose 0.1-10 µM
[6] = Toxicity in C57BL/6 mouse assessed as serum TBA level at 200 mg/kg, ip measured after 24 hrs (reference value: 2.674 umol/L); format: organism-based; conditions: in vivo
[7] = Toxicity in C57BL/6 mouse assessed as ataxia upto 200 mg/kg, ip measured after 24 hrs; format: organism-based; conditions: in vivo
A549 = experiment: Antiproliferative activity against human A549 cells incubated for 72 hrs by CCK8 assay; format: functional, cell-based; conditions: A549, 72 h
[8] = molecular target: T1, Microtubule-associated protein 1 light chain 3 beta/Epidermal growth factor receptor; experiment: ATTEC activity at LC3B/EGFR in rapamycin-treated human HCC827 cells assessed as protein degradation by Western blot analysis; format: cell-based
[9] = Half life in Sprague-Dawley rat at 20 mg/kg, ip; format: ADME, organism-based; conditions: in vivo
[10] = molecular target: T1, Microtubule-associated protein 1 light chain 3 beta/Epidermal growth factor receptor; experiment: ATTEC activity at LC3B/EGFR in human NCI-H3255 cells assessed as protein degradation; format: cell-based
[11] = Toxicity in C57BL/6 mouse assessed as serum ALT level at 200 mg/kg, ip measured after 24 hrs (reference value: 42.554 U/L); format: organism-based; conditions: in vivo
PC-9 [12] = experiment: In vivo ATTEC activity at LC3B/EGFR in human PC-9 cells implanted in NOD-SCID mouse assessed as protein degradation at 20 mg/kg, ip measured after 24 hrs by Western blot analysis; format: functional, organism-based
[13] = Toxicity in C57BL/6 mouse assessed as serum urea level at 100 mg/kg, ip measured after 24 hrs (reference value: 18.934 mmol/L); format: organism-based; conditions: in vivo
[14] = Stability in mouse plasma at 1 mg/ml incubated for 160 mins by HPLC analysis; format: ADME, cell-free; conditions: read-out: Stability
NCI-H3255 = experiment: Antiproliferative activity against human NCI-H3255 cells incubated for 72 hrs by CCK8 assay; format: functional, cell-based; conditions: NCI-H3255, 72 h
L02 = experiment: Antiproliferative activity against human HL7702 cells incubated for 72 hrs by CCK8 assay; format: toxicity, cell-based; conditions: l02, 72 h
[15] = Toxicity in C57BL/6 mouse assessed as histological change in kidney upto 200 mg/kg, ip measured after 24 hrs by H and E staining based analysis; format: organism-based; conditions: in vivo
PC-9 [16] = experiment: Anti-tumor activity against human PC-9 cells implanted in NOD-SCID mouse at 10 mg/kg, ip administered every other day for 3 weeks relative to control; format: functional; conditions: PC-9, 504 h, read-out: TGI
[17] = molecular target: T1, Microtubule-associated protein 1 light chain 3 beta/Epidermal growth factor receptor; experiment: Binding affinity to biotinylated LC3B/EGFR in human HCC827 cells assessed as dissociation constant BLI assay; format: cell-based
[18] = molecular target: T1, Microtubule-associated protein 1 light chain 3 beta/Epidermal growth factor receptor; experiment: ATTEC activity at LC3B/EGFR in EBSS-treated human HCC827 cells assessed as protein degradation by Western blot analysis; format: cell-based
[19] = Toxicity in C57BL/6 mouse assessed as serum TBIL level at 200 mg/kg, ip measured after 24 hrs (reference value: 18.958 umol/L); format: organism-based; conditions: in vivo
[20] = Toxicity in C57BL/6 mouse assessed as serum ALB level at 200 mg/kg, ip measured after 24 hrs (reference value: 40.01 g/L); format: organism-based; conditions: in vivo
[21] = molecular target: T1, Microtubule-associated protein 1 light chain 3 beta/Epidermal growth factor receptor; experiment: ATTEC activity at LC3B/EGFR in human A549 cells assessed as protein degradation; format: cell-based
[22] = Toxicity in C57BL/6 mouse assessed as body weight loss upto 200 mg/kg, ip measured after 24 hrs; format: organism-based; conditions: in vivo
[23] = Toxicity in C57BL/6 mouse assessed as dyspnea upto 200 mg/kg, ip measured after 24 hrs; format: organism-based; conditions: in vivo
[24] = molecular target: T1, Microtubule-associated protein 1 light chain 3 beta/Epidermal growth factor receptor; experiment: ATTEC activity at LC3B/EGFR in human NCI-H1975 cells assessed as protein degradation; format: cell-based
[25] = molecular target: T1, Microtubule-associated protein 1 light chain 3 beta/Epidermal growth factor receptor; experiment: ATTEC activity at LC3B/EGFR in MLN4924-treated human HCC827 cells assessed as protein degradation at 1 uM incubated for 12 hrs by Western blot analysis; format: cell-based
[26] = molecular target: T1, Microtubule-associated protein 1 light chain 3 beta/Epidermal growth factor receptor; experiment: ATTEC activity at LC3B/EGFR in chloroquine-treated human HCC827 cells assessed as protein degradation at 1 uM incubated for 16 hrs by Western blot analysis; format: cell-based
[27] = Toxicity in C57BL/6 mouse assessed as serum creatinine level at 100 mg/kg, ip measured after 24 hrs (reference value: 32.258 umol/L); format: organism-based; conditions: in vivo
[28] = Toxicity in C57BL/6 mouse assessed as histological change in liver upto 200 mg/kg, ip measured after 24 hrs by H and E staining based analysis; format: organism-based; conditions: in vivo
[29] = Toxicity in C57BL/6 mouse assessed as serum ALP level at 100 mg/kg, ip measured after 24 hrs (reference value: 250.654 U/L); format: organism-based; conditions: in vivo
PC-9 [30] = experiment: Inhibition of colony formation in human PC-9 cells incubated for 2 weeks by crystal violet staining based analysis; format: functional, cell-based; conditions: dose 0.1-10 µM
[31] = Toxicity in C57BL/6 mouse assessed as histological change in heart upto 200 mg/kg, ip measured after 24 hrs by H and E staining based analysis; format: organism-based; conditions: in vivo
[32] = molecular target: T1, Microtubule-associated protein 1 light chain 3 beta/Epidermal growth factor receptor; experiment: ATTEC activity at LC3B/EGFR in human HCC827 cells assessed as increase in density of lysosomes incubated for 4 hrs by LysoTracker Red staining based analysis; format: cell-based
[33] = Toxicity in C57BL/6 mouse assessed as serum DBIL level at 100 mg/kg, ip measured after 24 hrs (reference value: 7.868 umol/L); format: organism-based; conditions: in vivo
[34] = molecular target: T1, Microtubule-associated protein 1 light chain 3 beta/Epidermal growth factor receptor; experiment: ATTEC activity at LC3B/EGFR in human HCC827 cells assessed as protein degradation at 1 uM measured after 12 hrs by Western blot analysis relative to control; format: cell-based
[35] = Toxicity in C57BL/6 mouse assessed as serum AST level at 200 mg/kg, ip measured after 24 hrs (reference value: 234.682 U/L); format: organism-based; conditions: in vivo
PC-9 [36] = experiment: Anti-tumor activity against human PC-9 cells implanted in NOD-SCID mouse at 20 mg/kg, ip administered every other day for 3 weeks relative to control; format: functional; conditions: PC-9, 504 h, read-out: TGI
[37] = molecular target: T1, Microtubule-associated protein 1 light chain 3 beta/Epidermal growth factor receptor; experiment: ATTEC activity at LC3B/EGFR in Baf-treated human HCC827 cells assessed as protein degradation at 1 uM incubated for 16 hrs by Western blot analysis; format: cell-based
[38] = Toxicity in C57BL/6 mouse assessed as serum TBA level at 100 mg/kg, ip measured after 24 hrs (reference value: 2.674 umol/L); format: organism-based; conditions: in vivo

COc1cc2ncnc(Nc3ccc(F)c(Cl)c3)c2cc1OCCOCCOCCOCCNC(=O)COc1c(Br)cc(/C=C2\C(=O)Nc3ccc(I)cc32)cc1Br
Activity [1]: 6.434 µmol/L
Activity [2]: Non-Toxic
Activity [3]: Non-Toxic
Activity [4]: 65.504 U/L
Activity [5]: Active
inhibition (HCC827): Dose-Dependent Effect
Activity [6]: 3.062 µmol/L
Activity [7]: Non-Toxic
pIC50 (A549): < 5.00
Activity [8]: Active
half-life [9]: 630 min
Activity [10]: Active
Activity [11]: 43.302 U/L
Activity (PC-9 [12]): Active
Activity [13]: 19.63 mmol/L
remaining at 2.667 h, 1 mg/ml [14]: 90%
pIC50 (NCI-H3255): 5.52
Activity (L02): Non-Toxic
Activity [15]: Non-Toxic
inhibition in vivo at 10 mg/kg (PC-9 [16]): 51.6%
pKd [17]: 6.15
Activity [18]: Active
Activity [19]: 16.068 µmol/L
Activity [20]: 40.048 g/L
Activity [21]: inactive
Activity [22]: Non-Toxic
Activity [23]: Non-Toxic
Activity [24]: inactive
Activity [25]: Active
Activity [26]: inactive
Activity [27]: 27.8 µmol/L
Activity [28]: Non-Toxic
Activity [29]: 185.73 U/L
inhibition (PC-9 [30]): Dose-Dependent Effect
Activity [31]: Non-Toxic
Activity [32]: Active
Activity [33]: 6.434 µmol/L
Activity [34]: 68%
Activity [35]: 159.506 U/L
inhibition in vivo at 20 mg/kg (PC-9 [36]): 63.4%
Activity [37]: inactive
Activity [38]: 2.53 µmol/L
